From patent US5534511A, “Aminoalkyl benzoxazolinones and benzothiazolinones” (Adir et Compagnie, priority 1994, dated 1996)

System: NMRI-CERJ mice
Test: Antagonism of the hypermotility induced by amphetamine
Assay type: in vivo
Details: d-amphetamine 4 mg kg^-1 IP, 30 minutes
Protocol: 4 mg kg^-1 of d-amphetamine are injected intraperitoneally (IP) into groups of 10 NMRI-CERJ mice immediately after IP injection of the compound to be tested, and the mice are placed in an actimeter for 30 minutes.
The number of interruptions of the photoelectric cells is counted, as is the stereotyped behavior.
The activity of the compounds tested is expressed as a percentage of the antagonism of the hyperactivity induced by amphetamine.

`Cn1c(=O)sc2cc(CCN3CCC(Cc4ccccc4)CC3)ccc21` [Example 1, 3-METHYL-6-[2-(4-BENZYLPIPERID-1-YL)ETHYL]BENZOTHIAZOLINONE] was tested, and the “percentage of the antagonism of the hyperactivity induced by amphetamine” value (“percentage” for short) (2 mg.kg^-1 IP) was 23%, the “percentage” value (4 mg.kg^-1 IP) was 50% and the “percentage” value (8 mg.kg^-1 IP) was 63%.
